# Assay results from paper PMC10449848, “Structural basis of lipid-droplet localization of 17-beta-hydroxysteroid dehydrogenase 13” (Nature Communications, 2023).
# Values joined by “and” are separate entries in the source; they are usually repeats but may differ in a detail not shown here. Identical values can stand only once.
# Target: T1, human HSD17B13 (Homo sapiens, UniProt Q7Z5P4)
# T1 construct: human HSD17B13 (residues 2-300, NP_835236.2); 10x His (N); TEV protease site (N); made in house; host or cells: Sf9 (baculovirus)
# T1 sequence (Q7Z5P4 2-300): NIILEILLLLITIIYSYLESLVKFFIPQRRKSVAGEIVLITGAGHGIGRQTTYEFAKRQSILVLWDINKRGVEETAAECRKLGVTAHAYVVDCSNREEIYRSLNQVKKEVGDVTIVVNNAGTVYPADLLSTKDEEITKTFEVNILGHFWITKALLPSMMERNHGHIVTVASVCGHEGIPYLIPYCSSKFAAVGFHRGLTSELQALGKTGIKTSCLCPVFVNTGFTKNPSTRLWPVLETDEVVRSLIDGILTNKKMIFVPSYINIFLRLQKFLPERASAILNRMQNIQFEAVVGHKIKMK
# Experiment: Thermal shift assay (static light scattering, Tagg), human HSD17B13
# Type: binding
# Details: for Tagg, individual measurements: 10.4 µM protein; for thermal stability change: Fig. 6c
# Description: To understand ligand binding, we tested several approaches such as surface plasmon resonance and isothermal calorimetry. […] We next turned to thermal shift assays (TSA) for comparing ligand binding affinities. TSA measures the changes in the thermal denaturation temperature of a protein under different conditions such as the presence compound, changes in buffer conditions, or sequence mutations. There are various readouts including intrinsic fluorescence or light scattering signals. We chose the static light scattering methods to detect the temperatures at which our proteins start to aggregate (Tagg), which are more suitable for membrane proteins that require detergent micelles for stability.
# TSA studies were run on the UNit instrument (Unchained Labs, CA, USA). Experiments were run in either 25 mM sodium phosphate pH 7, 150 mM NaCl, 10% glycerol, 1 mM TCEP, 0.05% DDM, + different cofactors (NAD^+, NADH, NADP, NADPH; MilliporeSigma) or 25 mM HEPES pH 7.2, 300 mM NaCl, 0.5 mM TCEP, 0.05% DDM, 10% glycerol, ±500 µM NAD^+, and ±100 µM compound 1 (from 2 mM DMSO stock) or DMSO or 50 mM Hepes pH 7.5, 300 mM NaCl, 0.5 mM TCEP, 0.05% DDM, 500 µM NAD^+, ± 50 µM compounds (from 2 mM stock) or DMSO. Protein aggregation was measured by static light scattering at 266 and 473 nm with a 1 °C/sec ramp rate from 20-80 °C. The data was processed using the UNcle software (Unchained Labs, CA, USA), and temperatures at which the protein started aggregation were recorded as Tagg. Reported Tagg and analysis were based on measurements at 266 nm unless otherwise indicated.
compound,measurement,setting,value
O=C(NC[C@]1(O)CC[C@H](COc2ccccc2F)CC1)c1ccc(O)c(F)c1 [Compound 1],"Tagg, individual measurements",100 µM ligand + 500 µM NAD+,54.6 °C and 55.1 °C (2×) and 54.2 °C
same,"Tagg, individual measurements","100 µM ligand, buffer without NAD+",41.2 °C and 41.6 °C and 44.6 °C and 45 °C
same,deltaTagg,"500 uM NAD, 100 µM ligand, Tagg(compound + NAD+) - Tagg(buffer + NAD+)",13.1
same,thermal stability change,in the absence of cofactor,no significant effect
same,thermal stability change,in the presence of NAD+,significant increase in thermal stability
same,binding in TSA,"Fig. 6d, 500 μM NAD+",bound human HSD17B13 strongly
same,Tagg,"Fig. 6d, 500 μM NAD+, 50 µM compound",49.1 ± 2.0 °C
same,dTagg,"no NAD, 100 µM ligand, vs buffer",3.033
